Results: publication PMC7531004, “Discovery of gramicidin A analogues with altered activities by multidimensional screening of a one-bead-one-compound library” (Nature Communications, 2020)
Where a SMILES comes first, the peptide text is derived from it. [ ]: non-standard residue; d: D form. The star is where a group is joined. NHCH2CH2OH = OCCN*; For = O=C*

Assays:
[1] = system: P388 mouse leukemia cells; conditions: 92 h
Outline: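 P388 cells at 1 × 10^4 cells/mL (final) were exposed to library peptides (stocks diluted 250-fold in RPMI1640/10% FBS) for 92 h at 37 °C, 5% CO2. Viable cells were counted by WST-1/1-methoxy PMS (4 h), absorbance 415 nm, and expressed as cell viability (%).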

[2] = system: Streptococcus pyogenes SSI-9; assay: Antibacterial activity assay of bead-derived peptides (three concentrations); format: cell-based; set-up: key: +++: inhibition by the 640-fold diluted peptide solution; ++: inhibition by the 160-fold diluted solution; +: inhibition by the 40-fold diluted solution; -: no inhibition; conditions: S. pyogenes, bead-derived peptide solution, three concentrations
Outline: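 Undiluted, 4-fold and 16-fold DMSO-diluted peptide stocks; S. pyogenes SSI-9, 2 × 10^5 CFU, cation-adjusted MHB (50 mg/L Ca2+, 25 mg/L Mg2+) + 5% laked horse blood; 37 °C, 18 h; readout = cell pellet visible or not.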

[3] = H+/Na+ transport assay of bead-derived peptides (one-point); format: biochemical; set-up: key: relative activity; mean of two control wells = 1.00; conditions: bead-derived peptide solution, EYPC/EYPG LUVs;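 also: relative to parent gramicidin A activity set to 1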
Outline: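 H+/Na+ transport is monitored through pyranine fluorescence in freshly extruded LUVs after a 30-min room-temperature vortex with each library peptide at a single concentration. Signals are normalized to detergent (Triton X-100) and untreated controls.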

| SMILES | cell viability/% [1] [%] | antibacterial activity [2] | H+/Na+ transport activity normalized against the value of 1 (1.00) [3] |
| --- | --- | --- | --- |
| CC(C)C[C@@H](NC(=O)[C@H](C)NC(=O)CNC(=O)[C@@H](NC=O)C(C)C)C(=O)N[C@@H](C)C(=O)N[C@@H](C(=O)N[C@H](C(=O)N[C@@H](C(=O)N[C@@H](Cc1c[nH]c2ccccc12)C(=O)N[C@H](CC(C)C)C(=O)N[C@@H](Cc1c[nH]c2ccccc12)C(=O)N[C@H](CC(C)C)C(=O)N[C@@H](Cc1c[nH]c2ccccc12)C(=O)N[C@H](CC(C)C)C(=O)N[C@@H](Cc1c[nH]c2ccccc12)C(=O)NCCO)[C@H](C)O)C(C)C)C(C)C [compound 6766] (For-VGA[dL]A[dV]V[dT]W[dL]W[dL]W[dL]W-NHCH2CH2OH) | 100.0 | + | 1.07 |
| CC(C)C[C@@H](NC(=O)[C@H](C)NC(=O)CNC(=O)[C@@H](NC=O)C(C)C)C(=O)N[C@@H](C)C(=O)N[C@H](CC(C)C)C(=O)N[C@H](C(=O)N[C@@H](C(=O)N[C@@H](Cc1c[nH]c2ccccc12)C(=O)N[C@@H](C(=O)N[C@@H](Cc1c[nH]c2ccccc12)C(=O)N[C@@H](C(=O)N[C@@H](Cc1c[nH]c2ccccc12)C(=O)N[C@@H](C(=O)N[C@@H](Cc1c[nH]c2ccccc12)C(=O)NCCO)C(C)C)C(C)C)C(C)C)C(C)C)C(C)C [compound 5488] (For-VGA[dL]A[dL]V[dV]W[dV]W[dV]W[dV]W-NHCH2CH2OH) | 36.4 | + | 1.23 |
| CC(C)C[C@@H](NC(=O)[C@H](Cc1c[nH]c2ccccc12)NC(=O)[C@H](NC(=O)[C@H](Cc1c[nH]c2ccccc12)NC(=O)[C@@H](CC(C)C)NC(=O)[C@@H](NC(=O)[C@H](NC(=O)[C@H](C)NC(=O)[C@H](NC(=O)[C@H](C)NC(=O)CNC(=O)[C@@H](NC=O)C(C)C)[C@H](C)O)C(C)C)C(C)C)C(C)C)C(=O)N[C@@H](Cc1c[nH]c2ccccc12)C(=O)N[C@@H](C(=O)N[C@@H](Cc1c[nH]c2ccccc12)C(=O)NCCO)C(C)C [compound 182] (For-VGA[dT]A[dV]V[dL]W[dV]W[dL]W[dV]W-NHCH2CH2OH) | 100.0 | - | 1.16 |
| CC(C)C[C@@H](NC(=O)[C@H](Cc1c[nH]c2ccccc12)NC(=O)[C@H](NC(=O)[C@H](Cc1c[nH]c2ccccc12)NC(=O)[C@H](NC(=O)[C@H](Cc1c[nH]c2ccccc12)NC(=O)[C@@H](CC(C)C)NC(=O)[C@@H](NC(=O)[C@H](NC(=O)[C@H](C)NC(=O)[C@H](NC(=O)[C@H](C)NC(=O)CNC(=O)[C@@H](NC=O)C(C)C)C(C)C)C(C)C)C(C)C)C(C)C)C(C)C)C(=O)N[C@@H](Cc1c[nH]c2ccccc12)C(=O)NCCO [compound 10668] (For-VGA[dV]A[dV]V[dL]W[dV]W[dV]W[dL]W-NHCH2CH2OH) | 57.1 | + | 1.09 |
| CNC(=O)C[C@@H](NC(=O)[C@H](Cc1c[nH]c2ccccc12)NC(=O)[C@H](NC(=O)[C@H](Cc1c[nH]c2ccccc12)NC(=O)[C@H](NC(=O)[C@H](Cc1c[nH]c2ccccc12)NC(=O)[C@@H](CC(C)C)NC(=O)[C@@H](NC(=O)[C@H](NC(=O)[C@H](C)NC(=O)[C@@H](CC(C)C)NC(=O)[C@H](C)NC(=O)CNC(=O)[C@@H](NC=O)C(C)C)C(C)C)C(C)C)C(C)C)C(C)C)C(=O)N[C@@H](Cc1c[nH]c2ccccc12)C(=O)NCCO [compound 6808] (For-VGA[dL]A[dV]V[dL]W[dV]W[dV]W[dD](NHMe)W-NHCH2CH2OH) | 100.0 | - | 1.02 |
| CC(C)C[C@@H](NC(=O)[C@H](C)NC(=O)CNC(=O)[C@@H](NC=O)C(C)C)C(=O)N[C@@H](C)C(=O)N[C@@H](C(=O)N[C@H](C(=O)N[C@@H](C(=O)N[C@@H](Cc1c[nH]c2ccccc12)C(=O)N[C@@H](C(=O)N[C@@H](Cc1c[nH]c2ccccc12)C(=O)N[C@@H](C(=O)N[C@@H](Cc1c[nH]c2ccccc12)C(=O)N[C@H](CC(C)C)C(=O)N[C@@H](Cc1c[nH]c2ccccc12)C(=O)NCCO)C(C)C)C(C)C)[C@H](C)O)C(C)C)C(C)C [compound 809] (For-VGA[dL]A[dV]V[dT]W[dV]W[dV]W[dL]W-NHCH2CH2OH) | 100.0 | - | 1.13 |
| CC(C)C[C@@H](NC(=O)[C@@H](NC(=O)[C@H](NC(=O)[C@H](C)NC(=O)[C@H](NC(=O)[C@H](C)NC(=O)CNC(=O)[C@@H](NC=O)C(C)C)[C@H](C)O)C(C)C)C(C)C)C(=O)N[C@@H](Cc1c[nH]c2ccccc12)C(=O)N[C@@H](C(=O)N[C@@H](Cc1c[nH]c2ccccc12)C(=O)N[C@@H](C(=O)N[C@@H](Cc1c[nH]c2ccccc12)C(=O)N[C@@H](C(=O)N[C@@H](Cc1c[nH]c2ccccc12)C(=O)NCCO)C(C)C)C(C)C)C(C)C [compound 5623] (For-VGA[dT]A[dV]V[dL]W[dV]W[dV]W[dV]W-NHCH2CH2OH) | 80.0 | - | 1.11 |
| CC(C)C[C@@H](NC(=O)[C@H](C)NC(=O)[C@H](NC(=O)[C@H](C)NC(=O)CNC(=O)[C@@H](NC=O)C(C)C)C(C)C)C(=O)N[C@H](C(=O)N[C@@H](C(=O)N[C@@H](Cc1c[nH]c2ccccc12)C(=O)N[C@@H](C(=O)N[C@@H](Cc1c[nH]c2ccccc12)C(=O)N[C@H](CC(C)C)C(=O)N[C@@H](Cc1c[nH]c2ccccc12)C(=O)N[C@@H](C(=O)N[C@@H](Cc1c[nH]c2ccccc12)C(=O)NCCO)[C@H](C)O)C(C)C)C(C)C)C(C)C [compound 8731] (For-VGA[dV]A[dL]V[dV]W[dV]W[dL]W[dT]W-NHCH2CH2OH) | 71.2 | - | 1.05 |
| CC(C)C[C@@H](NC(=O)[C@H](C)NC(=O)[C@H](NC(=O)[C@H](C)NC(=O)CNC(=O)[C@@H](NC=O)C(C)C)[C@H](C)O)C(=O)N[C@H](C(=O)N[C@H](CC(C)C)C(=O)N[C@@H](Cc1c[nH]c2ccccc12)C(=O)N[C@@H](C(=O)N[C@@H](Cc1c[nH]c2ccccc12)C(=O)N[C@H](CC(C)C)C(=O)N[C@@H](Cc1c[nH]c2ccccc12)C(=O)N[C@@H](C(=O)N[C@@H](Cc1c[nH]c2ccccc12)C(=O)NCCO)C(C)C)[C@H](C)O)C(C)C [compound 3437] (For-VGA[dT]A[dL]V[dL]W[dT]W[dL]W[dV]W-NHCH2CH2OH) | 100.0 | - | 1.01 |
| CC(C)C[C@@H](NC(=O)[C@H](C)NC(=O)[C@H](NC(=O)[C@H](C)NC(=O)CNC(=O)[C@@H](NC=O)C(C)C)C(C)C)C(=O)N[C@H](C(=O)N[C@H](CC(C)C)C(=O)N[C@@H](Cc1c[nH]c2ccccc12)C(=O)N[C@@H](C(=O)N[C@@H](Cc1c[nH]c2ccccc12)C(=O)N[C@H](CC(C)C)C(=O)N[C@@H](Cc1c[nH]c2ccccc12)C(=O)N[C@@H](C(=O)N[C@@H](Cc1c[nH]c2ccccc12)C(=O)NCCO)C(C)C)C(C)C)C(C)C [compound 906] (For-VGA[dV]A[dL]V[dL]W[dV]W[dL]W[dV]W-NHCH2CH2OH) | 100.0 | + | 1.06 |
| CC(C)C[C@@H](NC(=O)[C@H](C)NC(=O)[C@H](NC(=O)[C@H](C)NC(=O)CNC(=O)[C@@H](NC=O)C(C)C)[C@H](C)O)C(=O)N[C@H](C(=O)N[C@H](CC(C)C)C(=O)N[C@@H](Cc1c[nH]c2ccccc12)C(=O)N[C@@H](C(=O)N[C@@H](Cc1c[nH]c2ccccc12)C(=O)N[C@H](CC(C)C)C(=O)N[C@@H](Cc1c[nH]c2ccccc12)C(=O)N[C@H](CC(C)C)C(=O)N[C@@H](Cc1c[nH]c2ccccc12)C(=O)NCCO)[C@H](C)O)C(C)C [compound 5215] (For-VGA[dT]A[dL]V[dL]W[dT]W[dL]W[dL]W-NHCH2CH2OH) | 100.0 | - | 1.33 |
| CC(C)C[C@@H](NC(=O)[C@H](Cc1c[nH]c2ccccc12)NC(=O)[C@H](NC(=O)[C@H](Cc1c[nH]c2ccccc12)NC(=O)[C@H](NC(=O)[C@H](Cc1c[nH]c2ccccc12)NC(=O)[C@@H](CC(C)C)NC(=O)[C@@H](NC(=O)[C@H](NC(=O)[C@H](C)NC(=O)[C@H](NC(=O)[C@H](C)NC(=O)CNC(=O)[C@@H](NC=O)C(C)C)[C@H](C)O)C(C)C)C(C)C)C(C)C)C(C)C)C(=O)N[C@@H](Cc1c[nH]c2ccccc12)C(=O)NCCO [compound 9075] (For-VGA[dT]A[dV]V[dL]W[dV]W[dV]W[dL]W-NHCH2CH2OH) | 58.6 | - | 1.01 |
| CNC(=O)C[C@@H](NC(=O)[C@H](Cc1c[nH]c2ccccc12)NC(=O)[C@@H](CC(C)C)NC(=O)[C@H](Cc1c[nH]c2ccccc12)NC(=O)[C@H](NC(=O)[C@H](Cc1c[nH]c2ccccc12)NC(=O)[C@@H](CC(C)C)NC(=O)[C@@H](NC(=O)[C@H](NC(=O)[C@H](C)NC(=O)[C@H](NC(=O)[C@H](C)NC(=O)CNC(=O)[C@@H](NC=O)C(C)C)C(C)C)C(C)C)C(C)C)C(C)C)C(=O)N[C@@H](Cc1c[nH]c2ccccc12)C(=O)NCCO [compound 11368] (For-VGA[dV]A[dV]V[dL]W[dV]W[dL]W[dD](NHMe)W-NHCH2CH2OH) | 61.1 | - | 1.01 |
